Like-named read-outs stand apart in the source and are kept apart here.
Columns and labels:
[1] = target: T1, His-GST-TVMV-hRIPK1(1-324) (Homo sapiens, UniProt Q13546); experiment: RIPK1 HTRF Binding Assay
T1 construct: The coding region of human RIPK1(1-324) flanked by NdeI site at 5′ end; made in house; host or cells: Spodoptera frugiperda (Sf9) insect cells, baculovirus
T1 sequence (Q13546 1-324): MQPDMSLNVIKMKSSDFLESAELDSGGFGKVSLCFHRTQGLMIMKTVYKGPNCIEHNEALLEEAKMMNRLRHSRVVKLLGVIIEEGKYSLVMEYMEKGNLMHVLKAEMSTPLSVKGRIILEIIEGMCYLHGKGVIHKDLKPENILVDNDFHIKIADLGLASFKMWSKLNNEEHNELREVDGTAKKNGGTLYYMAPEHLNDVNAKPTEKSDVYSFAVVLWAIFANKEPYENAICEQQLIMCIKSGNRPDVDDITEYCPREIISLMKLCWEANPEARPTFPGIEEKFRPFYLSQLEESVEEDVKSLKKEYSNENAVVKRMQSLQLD

[2] = system: MLKL phosphorylation in HT29-L23 human colorectal adenocarcinoma cells; experiment: MLKL Phosphorylation High-Content Assay; format: cell-based; conditions: Homo sapiens
Outline: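 Cells incubated six hours at 37° C., then phospho-MLKL (S358) immunostained overnight at 4° C. and imaged by high-content microscopy. Phosphorylation quantified as mean circ-ring average intensity ratio; IC50 and Ymax from 4-parameter logistic fits.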

[3] = x marks IC50 class 20-200 nM, read-out: RIPK1 HTRF binding 20-200 nM
[4] = x marks IC50 class 20-200 nM, read-out: pMLKL cell activity 20-200 nM
[5] = x marks IC50 class >200 nM, read-out: pMLKL cell activity >200 nM
[6] = x marks IC50 class <20 nM, read-out: RIPK1 HTRF binding <20 nM
[7] = x marks IC50 class <20 nM, read-out: pMLKL cell activity <20 nM

`COc1ncc(-c2ccn3nc(N)nc3c2)cc1C(=O)NCc1cc(C(F)(F)F)ccc1F` [Example 116, 5-{2-amino-[1,2,4]triazolo[1,5-a]pyridin-7-yl}-N-{[2-fluoro-5-(trifluoromethyl)phenyl]methyl}-2-methoxypyridine-3-carboxamide] was tested, and the IC50 [1, 3] was 20 to 200 nM and the IC50 [2, 4] was 20 to 200 nM.

With `COc1ncc(-c2ccn3nc(N)nc3c2)cc1C(=O)N1CCCC(Cc2ccc(Cl)cc2)C1` (stereo not drawn) [Example 117, 7-(5-{3-[(4-chlorophenyl)methyl]piperidine-1-carbonyl}-6-methoxypyridin-3-yl)-[1,2,4]triazolo[1,5-a]pyridin-2-amine] the IC50 [1, 3] was 20 to 200 nM and the IC50 [2, 5] was > 200 nM.

`COc1ncc(-c2ccn3nc(N)nc3c2)cc1C(=O)N1CCCC(Cc2cccc(F)c2)C1` (stereo not drawn) [Example 118, 7-(5-{3-[(3-fluorophenyl)methyl]piperidine-1-carbonyl}-6-methoxypyridin-3-yl)-[1,2,4]triazolo[1,5-a]pyridin-2-amine] showed an IC50 [1, 3] of 20 to 200 nM and an IC50 [2, 4] of 20 to 200 nM.

In the case of `COc1ncc(-c2ccn3nc(N)nc3c2)cc1C(=O)NCc1cccc(C(F)(F)F)c1` [Example 119, 5-{2-amino-[1,2,4]triazolo[1,5-a]pyridin-7-yl}-2-methoxy-N-{[3-(trifluoromethyl)phenyl]methyl}pyridine-3-carboxamide], the IC50 [1, 3] is reported as 20 to 200 nM and the IC50 [2, 5] is reported as > 200 nM.

Work on `COc1ccc(CC2CCCN(C(=O)c3cc(-c4ccn5nc(N)nc5c4)cnc3OC)C2)cc1` (stereo not drawn) [Example 120, 7-(6-methoxy-5-{3-[(4-methoxyphenyl)methyl]piperidine-1-carbonyl}pyridin-3-yl)-[1,2,4]triazolo[1,5-a]pyridin-2-amine] yielded an IC50 [1, 3] of 20 to 200 nM and an IC50 [2, 4] of 20 to 200 nM.

In the case of `COc1ncc(-c2ccn3nc(N)nc3c2)cc1C(=O)N1CCCC(Cc2ccc(C)cc2)C1` (stereo not drawn) [Example 121, 7-(6-methoxy-5-{3-[(4-methylphenyl)methyl]piperidine-1-carbonyl}pyridin-3-yl)-[1,2,4]triazolo[1,5-a]pyridin-2-amine], the IC50 [1, 3] is reported as 20 to 200 nM and the IC50 [2, 4] is reported as 20 to 200 nM.

With `COc1ncc(-c2ccn3nc(N)nc3c2)cc1C(=O)NCc1c(F)cc(F)cc1OCC1CCCC1` [Example 122, 5-{2-amino-[1,2,4]triazolo[1,5-a]pyridin-7-yl}-N-{[2-(cyclopentylmethoxy)-4,6-difluorophenyl]methyl}-2-methoxypyridine-3-carboxamide] the IC50 [1, 6] was < 20 nM and the IC50 [2, 4] was 20 to 200 nM.

In the case of `COc1ncc(-c2ccn3nc(N)nc3c2)cc1C(=O)NCc1ccccc1OCC1CCCCC1` [Example 123, 5-{2-amino-[1,2,4]triazolo[1,5-a]pyridin-7-yl}-N-{[2-(cyclohexylmethoxy)phenyl]methyl}-2-methoxypyridine-3-carboxamide], the IC50 [1, 6] is reported as < 20 nM and the IC50 [2, 4] is reported as 20 to 200 nM.

`COc1ncc(-c2ccn3nc(N)nc3c2)cc1C(=O)NCc1ncccc1OCC1CCCC1` [Example 124, 5-{2-amino-[1,2,4]triazolo[1,5-a]pyridin-7-yl}-N-{[3-(cyclopentylmethoxy)pyridin-2-yl]methyl}-2-methoxypyridine-3-carboxamide] was tested, and the IC50 [1, 6] was < 20 nM and the IC50 [2, 4] was 20 to 200 nM.

For `COc1ncc(-c2ccn3nc(N)nc3c2)cc1C(=O)NCc1ccccc1OC(C)C1CCCC1` (stereo not drawn) [Example 125, 5-{2-amino-[1,2,4]triazolo[1,5-a]pyridin-7-yl}-N-{[2-(1-cyclopentylethoxy)phenyl]methyl}-2-methoxypyridine-3-carboxamide], the IC50 [1, 6] was < 20 nM and the IC50 [2, 4] was 20 to 200 nM.

With `COc1ncc(-c2ccn3nc(N)nc3c2)cc1C(=O)NCc1c(F)cccc1OCC1CCCC1` [Example 126, 5-{2-amino-[1,2,4]triazolo[1,5-a]pyridin-7-yl}-N-{[2-(cyclopentylmethoxy)-6-fluorophenyl]methyl}-2-methoxypyridine-3-carboxamide] the IC50 [1, 6] was < 20 nM and the IC50 [2, 4] was 20 to 200 nM.

For `COc1ncc(-c2ccn3nc(N)nc3c2)cc1C(=O)NCc1cccnc1OCC1CCCC1` [Example 127, 5-{2-amino-[1,2,4]triazolo[1,5-a]pyridin-7-yl}-N-{[2-(cyclopentylmethoxy)pyridin-3-yl]methyl}-2-methoxypyridine-3-carboxamide], the IC50 [1, 6] was < 20 nM and the IC50 [2, 4] was 20 to 200 nM.

In the case of `COc1ncc(-c2ccn3nc(N)nc3c2)cc1C(=O)NCc1cc(F)cc(F)c1OCC1CCCC1` [Example 128, 5-{2-amino-[1,2,4]triazolo[1,5-a]pyridin-7-yl}-N-{[2-(cyclopentylmethoxy)-3,5-difluorophenyl]methyl}-2-methoxypyridine-3-carboxamide], the IC50 [1, 6] is reported as < 20 nM and the IC50 [2, 7] is reported as < 20 nM.

In the case of `COc1ncc(-c2ccn3nc(N)nc3c2)cc1C(=O)NCc1cc(F)ccc1OCC1CCCC1` [Example 129, 5-{2-amino-[1,2,4]triazolo[1,5-a]pyridin-7-yl}-N-{[2-(cyclopentylmethoxy)-5-fluorophenyl]methyl}-2-methoxypyridine-3-carboxamide], the IC50 [1, 6] is reported as < 20 nM and the IC50 [2, 4] is reported as 20 to 200 nM.

In the case of `COc1ncc(-c2ccn3nc(N)nc3c2)cc1C(=O)NCc1ccc(F)cc1OCC1CCCC1` [Example 130, 5-{2-amino-[1,2,4]triazolo[1,5-a]pyridin-7-yl}-N-{[2-(cyclopentylmethoxy)-4-fluorophenyl]methyl}-2-methoxypyridine-3-carboxamide], the IC50 [1, 6] is reported as < 20 nM and the IC50 [2, 4] is reported as 20 to 200 nM.

Work on `COc1ncc(-c2ccn3nc(N)nc3c2)cc1C(=O)NCc1ncccc1OCC1CC1` [Example 132, 5-{2-amino-[1,2,4]triazolo[1,5-a]pyridin-7-yl}-N-{[3-(cyclopropylmethoxy)pyridin-2-yl]methyl}-2-methoxypyridine-3-carboxamide] yielded an IC50 [1, 3] of 20 to 200 nM and an IC50 [2, 4] of 20 to 200 nM.

For `CCc1ccccc1CNC(=O)c1cc(-c2ccn3nc(N)nc3c2)cnc1OC` [Example 133, 5-{2-amino-[1,2,4]triazolo[1,5-a]pyridin-7-yl}-N-[(2-ethylphenyl)methyl]-2-methoxypyridine-3-carboxamide], the IC50 [1, 3] was 20 to 200 nM and the IC50 [2, 5] was > 200 nM.

With `COc1ncc(-c2ccn3nc(N)nc3c2)cc1C(=O)N1CCC[C@H](Cc2ccc(F)cc2)C1` [Example 134, 7-{5-[(3R)-3-[(4-fluorophenyl)methyl]piperidine-1-carbonyl]-6-methoxypyridin-3-yl}-[1,2,4]triazolo[1,5-a]pyridin-2-amine] the IC50 [1, 3] was 20 to 200 nM and the IC50 [2, 7] was < 20 nM.

With `COc1ncc(-c2ccn3nc(N)nc3c2)cc1C(=O)NCc1cccnc1OC1CCCC1` [Example 135, 5-{2-amino-[1,2,4]triazolo[1,5-a]pyridin-7-yl}-N-{[2-(cyclopentyloxy)pyridin-3-yl]methyl}-2-methoxypyridine-3-carboxamide] the IC50 [1, 6] was < 20 nM and the IC50 [2, 7] was < 20 nM.

`COc1ncc(-c2ccn3nc(N)nc3c2)cc1C(=O)NCc1cccnc1OCC1CCC1` [Example 137, 5-{2-amino-[1,2,4]triazolo[1,5-a]pyridin-7-yl}-N-{[2-(cyclobutylmethoxy)pyridin-3-yl]methyl}-2-methoxypyridine-3-carboxamide] was tested, and the IC50 [1, 6] was < 20 nM and the IC50 [2, 4] was 20 to 200 nM.

`COc1ncc(-c2ccn3nc(N)nc3c2)cc1C(=O)NCc1ccccc1OCC1CCCC1` [Example 138, 5-{2-amino-[1,2,4]triazolo[1,5-a]pyridin-7-yl}-N-{[2-(cyclopentylmethoxy)phenyl]methyl}-2-methoxypyridine-3-carboxamide] was tested, and the IC50 [1, 6] was < 20 nM and the IC50 [2, 4] was 20 to 200 nM.

`COc1ncc(-c2ccn3nc(N)nc3c2)cc1C(=O)NCc1cccc(OC(C)C)c1` [Example 139, 5-{2-amino-[1,2,4]triazolo[1,5-a]pyridin-7-yl}-2-methoxy-N-{[3-(propan-2-yloxy)phenyl]methyl}pyridine-3-carboxamide] was tested, and the IC50 [1, 6] was < 20 nM and the IC50 [2, 4] was 20 to 200 nM.

With `COc1ncc(-c2ccn3nc(N)nc3c2)cc1C(=O)NCc1ccccc1OC1CCOC1` (stereo not drawn) [Example 140, 5-{2-amino-[1,2,4]triazolo[1,5-a]pyridin-7-yl}-2-methoxy-N-{[2-(oxolan-3-yloxy)phenyl]methyl}pyridine-3-carboxamide] the IC50 [1, 6] was < 20 nM and the IC50 [2, 4] was 20 to 200 nM.

With `COc1ncc(-c2ccn3nc(N)nc3c2)cc1C(=O)NCc1ncccc1OC1CCCC1` [Example 141, 5-{2-amino-[1,2,4]triazolo[1,5-a]pyridin-7-yl}-N-{[3-(cyclopentyloxy)pyridin-2-yl]methyl}-2-methoxypyridine-3-carboxamide] the IC50 [1, 6] was < 20 nM and the IC50 [2, 4] was 20 to 200 nM.

In the case of `COc1ncc(-c2ccn3nc(N)nc3c2)cc1C(=O)NCc1cc(F)ccc1OC1CCCC1` [Example 142, 5-{2-amino-[1,2,4]triazolo[1,5-a]pyridin-7-yl}-N-{[2-(cyclopentyloxy)-5-fluorophenyl]methyl}-2-methoxypyridine-3-carboxamide], the IC50 [1, 6] is reported as < 20 nM and the IC50 [2, 7] is reported as < 20 nM.

In the case of `COc1ncc(-c2ccn3nc(N)nc3c2)cc1C(=O)NCc1ccccc1SC(C)C` [Example 143, 5-{2-amino-[1,2,4]triazolo[1,5-a]pyridin-7-yl}-2-methoxy-N-{[2-(propan-2-ylsulfanyl)phenyl]methyl}pyridine-3-carboxamide], the IC50 [1, 6] is reported as < 20 nM and the IC50 [2, 7] is reported as < 20 nM.

With `COc1ncc(-c2ccn3nc(N)nc3c2)cc1C(=O)NCc1ccccc1OC(C)C` [Example 144, 5-{2-amino-[1,2,4]triazolo[1,5-a]pyridin-7-yl}-2-methoxy-N-{[2-(propan-2-yloxy)phenyl]methyl}pyridine-3-carboxamide] the IC50 [1, 6] was < 20 nM and the IC50 [2, 4] was 20 to 200 nM.

From US10913738B2 (BRISTOL-MYERS SQUIBB COMPANY, priority 2017, dated 2021)
